According to patent US11576923B2, “Composition for improving skin elasticity comprising novel ginsenoside” (AMOREPACIFIC CORPORATION, priority 2019, dated 2023):

Experiments:
Format in all cases: cell-based
[1] = tested on: collagen biosynthesis in normal human dermal fibroblasts (NHDFs); assay: Collagen biosynthesis-promoting effect (procollagen mRNA by Q-PCR, secreted collagen protein by ELISA)
Experimental: Normal human dermal fibroblasts (NHDFs; ATCC) were cultured in Dulbecco's modified Eagle's medium (Sigma) supplemented with 10% fetal bovine serum (FBS; Hyclone) and 1 (w/v) % penicillin/streptomycin (Sigma) at 37° C. in a 5% CO2 incubator. For collagen synthesis, after replacing the medium with serum-free Dulbecco's modified Eagle's medium, the cells were treated with GS #10, which is a novel ginsenoside according to an exemplary embodiment of the present disclosure, and ginsenosides GS #01-GS #06 as comparative examples of the present disclosure, which were isolated from the ginseng seed extract, for 24 hours at a concentration of 10 μg/mL, respectively. Fibroblast growth factor 1 (FGF1) was used as a positive control group for inducing collagen synthesis. After recovering the cells and extracting RNA using a TRIzol™ reagent (Thermo), cDNA was synthesized using a ReverdAid 1st strand cDNA synthesis kit (Thermo). Then, the change in the amount of procollagen mRNA was observed using a gene amplifier (CFX96 thermocycler, Bio-Rad) (FIG. 11), and the amount of the collagen protein secreted to the medium was measured using a collagen ELISA kit (Abcam) (FIG. 12) […]

[2] = tested on: matrix metalloproteinase-1 (MMP-1) expression in normal human dermal fibroblasts (NHDFs); assay: Collagen degradation-inhibiting effect (TNFα-induced MMP-1 mRNA by Q-PCR, secreted MMP-1 protein by ELISA)
Text: For skin elasticity to be maintained, the synthesis of collagen should be promoted and its degradation should be inhibited. Because collagen is degraded by matrix metalloproteinase-1 (MMP-1), it was investigated whether the ginseng seed-derived ginsenosides inhibit the expression of the collagen-degrading enzyme. After pretreating normal human dermal fibroblasts (NHDFs; ATCC) with GS #10, which is a novel ginsenoside according to an exemplary embodiment of the present disclosure, and ginsenosides GS #01-GS #06 as comparative examples of the present disclosure, which were isolated from the ginseng seed extract, under a serum-free condition in the same manner as in Test Example 1 for 2 hours at a concentration of 10 μg/mL, respectively, the cells were treated for 24 hours with a substance capable of inducing inflammatory response (TNFα; 10 ng/mL), which can promote the expression of MMP-1. After preparing RNA and cDNA in the same manner as in Test Example 1, the expression of MMP-1 mRNA was investigated by Q-PCR (FIG. 13), and the amount of the secreted MMP-1 protein was analyzed using a human MMP-1 ELISA kit (Abcam) (FIG. 14). […] Through this, it was confirmed that Compound 10 (GS #10), which is a novel ginsenoside of the present disclosure, can effectively improve skin elasticity by alleviating or delaying the decline in skin elasticity and the formation of wrinkles. […]

[3] = tested on: SH-SY5Y cells; assay: Cytotoxicity (CCK-8 cell viability); conditions: 0.1, 1, 5, 10, 20 and 50 μM, FIG. 19
Experimental: Cell growth in the presence of the novel ginsenoside GS #10 according to an exemplary embodiment of the present disclosure was evaluated using a cell counting kit (CCK-8) in order to exclude the possibility that the ginsenoside may affect the effect of improving skin elasticity or improving wrinkles through cytotoxic activity. The experimental method is as follows.
10 μL of a CCK-8 reagent was added to SH-SY5Y cells (Dojindo, Md., USA) in a 96-well plate and left at 37° C. for 2 hours. Then, absorbance was measured at 450 nm. Cell viability was represented as the percentage (%) of the absolute optical density of each sample relative to an untreated sample. The concentration of the novel ginsenoside GS #10 according to an exemplary embodiment of the present disclosure in the medium in which the cells were cultured was 0.1, 1, 5, 10, 20 and 50 μM, respectively.

## CC1(C)C(=O)CC[C@@]2(C)C1[C@@H](O[C@H]1OC(CO)[C@H](O)C(O)C1O[C@H]1OC(CO)[C@H](O)C(O)C1O)C[C@]1(C)C2C[C@@H](O)C2C([C@]3(C)CC[C@H](C(C)(C)O)O3)CC[C@]21C (stereo partly drawn) [Compound 10, (20S,24R)-6-O-β-D-glucopyranosyl(1→2)-β-D-glucopyranoside-dammar-3-one-20,24-epoxy-6a,12b,25-triol]
[1]; NHDFs, 10 μg/mL, 24 hours, serum-free, vs control group (−), FIG. 11 and FIG. 12
  increase in the amount of collagen due to promoted collagen biosynthesis: about 2 times
[1]; Test Example 3, same manner as Test Example 1, FIG. 15 and FIG. 16
  increase of collagen synthesis: ≥ 2 times
[2]; NHDFs, 10 μg/mL pretreatment 2 hours, then TNFα 10 ng/mL 24 hours, FIG. 13 and FIG. 14
  effect of inhibiting MMP-1 expression as compared to Compounds 1-6: 2-3 times higher
[2]; Test Example 3, same manner as Test Example 2, FIG. 17 and FIG. 18
  effect of inhibiting collagen degradation as compared to the three red ginseng marker ginsenosides: remarkably excellent effect of inhibiting collagen degradation
[3]
  cytotoxicity (cell viability, CCK-8): did not exhibit cytotoxicity up to 50 μM
